Where two headings read alike, the source gives them in different places.
Target: T1, F508delCFTR (Homo sapiens, UniProt P13569, DEL508-508)
T1 construct: expressed in transfected cells; host or cells: CFBE41o- human lung-derived epithelial cells (CFBE4lo-F508delCFTR-HRP), doxycycline-inducible
Experiment: Cell Surface Expression-Horse Radish Peroxidase (CSE-HRP) Assay;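 for Maximum % activity (with co-corrector): co-corrector and positive control are both the same reference corrector at 2 µM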;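 for Maximum % activity (without co-corrector): percent of the 2 µM on-plate positive control corrector response above DMSO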
Format: cell-based
Details: for Maximum % activity (with co-corrector) / Emax: maximum at any tested concentration, normalized to on-plate positive control; for Emax: read-out: Maximum % activity (without co-corrector)
Protocol: Cell Surface Expression-Horse Radish Peroxidase (CSE-HRP) Assay;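 for Maximum % activity (with co-corrector): co-corrector and positive control are both the same reference corrector at 2 µM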;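 for Maximum % activity (without co-corrector): percent of the 2 µM on-plate positive control corrector response above DMSO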
The development was achieved by expressing the F508delCFTR mutation along with a horseradish peroxidase (HRP) in the fourth exofacial loop, and then measuring the HRP activity using luminescence readout from these cells, CFBE4lo-F508delCFTR-HRP, that were incubated overnight with the test corrector compounds, either without or with the co-corrector. […] The test compounds were then added either without or with a co-corrector at the required concentrations and further incubated for 18-24 hours at 33° C. The highest concentration tested was 20 μM with an 8-point concentration response curve using a 3-fold dilution in both the test compound without or with the co-corrector. Three replicate plates were run to determine one EC50. All plates contained negative controls (dimethyl sulfoxide, DMSO) and positive control (2 μM of 3-[(2R,4R)-4-({[1-(2,2-difluoro-1,3-benzodioxol-5-yl)cyclopropyl]carbonyl}amino)-7-methoxy-3,4-dihydro-2H-chromen-2-yl]benzoic acid) as well as on-plate concentration response of the positive control. […] The raw counts from the experiment were analyzed using Accelrys® Assay Explorer v3.3.
1−[3*SDPositive Control+3*SDNegative Control/Absolute(MeanPositive Control−MeanNegative Control)]
wherein “SD” is standard deviation.
The % activity measured at each of the 8 test concentrations of the test compound added either without or with a co-corrector (2 μM of 3-[(2R,4R)-4-({[1-(2,2-difluoro-1,3-benzodioxol-5-yl)cyclopropyl]carbonyl}amino)-7-methoxy-3,4-dihydro-2H-chromen-2-yl]benzoic acid) was normalized to the on-plate positive control using the following formulae:
% activity(Test compound without co-corrector)=[(test compound without co-corrector response−DMSO response)/(positive control response−DMSO response)]*100
% activity(Test compound with co-corrector)=[(test compound with co-corrector response−DMSO response)/(positive control response−DMSO response)]*100
The maximum % activity achieved for the test compound either without or with a co-corrector at any tested concentration is presented in Table 4 along with the respective EC50's calculated using the following general sigmoidal curve with variable Hill slope equation (described as Model 42 in the Accelrys® Assay Explorer v3.3 software):
General sigmoidal curve with concentration, response, top, bottom, EC50 and Hill slope. This model describes a sigmoidal curve with an adjustable baseline, a. The equation can be used to fit curves where response is either increasing or decreasing with respect to the independent variable, “x”.
“x” is a concentration of drug under test. “y” is the response. “a” is the maximum response, and “d” is the minimum response “c” is the inflection point (EC50) for the curve. That is, “y” is halfway between the lower and upper asymptotes when x=c. “b” is the slope-factor or Hill coefficient. The sign of b is positive when the response increases with increasing dose and is negative when the response decreases with increasing dose (inhibition).

[1] = CSE-HRP, test compound without co-corrector, read-out: EC50 (without co-corrector)
[2] = CSE-HRP, with co-corrector (2 μM of 3-[(2R,4R)-4-({[1-(2,2-difluoro-1,3-benzodioxol-5-yl)cyclopropyl]carbonyl}amino)-7-methoxy-3,4-dihydro-2H-chromen-2-yl]benzoic acid), read-out: EC50 (with co-corrector)
[3] = CSE-HRP, with co-corrector (2 μM)
[4] = test compound without co-corrector, read-out: EC50 (without co-corrector)
[5] = with co-corrector (2 μM of 3-[(2R,4R)-4-({[1-(2,2-difluoro-1,3-benzodioxol-5-yl)cyclopropyl]carbonyl}amino)-7-methoxy-3,4-dihydro-2H-chromen-2-yl]benzoic acid), read-out: EC50 (with co-corrector)
[6] = test compound without co-corrector
[7] = with co-corrector (2 μM of 3-[(2R,4R)-4-({[1-(2,2-difluoro-1,3-benzodioxol-5-yl)cyclopropyl]carbonyl}amino)-7-methoxy-3,4-dihydro-2H-chromen-2-yl]benzoic acid)

T1 sequence (P13569 with tags, fused parts or gaps DEL508-508): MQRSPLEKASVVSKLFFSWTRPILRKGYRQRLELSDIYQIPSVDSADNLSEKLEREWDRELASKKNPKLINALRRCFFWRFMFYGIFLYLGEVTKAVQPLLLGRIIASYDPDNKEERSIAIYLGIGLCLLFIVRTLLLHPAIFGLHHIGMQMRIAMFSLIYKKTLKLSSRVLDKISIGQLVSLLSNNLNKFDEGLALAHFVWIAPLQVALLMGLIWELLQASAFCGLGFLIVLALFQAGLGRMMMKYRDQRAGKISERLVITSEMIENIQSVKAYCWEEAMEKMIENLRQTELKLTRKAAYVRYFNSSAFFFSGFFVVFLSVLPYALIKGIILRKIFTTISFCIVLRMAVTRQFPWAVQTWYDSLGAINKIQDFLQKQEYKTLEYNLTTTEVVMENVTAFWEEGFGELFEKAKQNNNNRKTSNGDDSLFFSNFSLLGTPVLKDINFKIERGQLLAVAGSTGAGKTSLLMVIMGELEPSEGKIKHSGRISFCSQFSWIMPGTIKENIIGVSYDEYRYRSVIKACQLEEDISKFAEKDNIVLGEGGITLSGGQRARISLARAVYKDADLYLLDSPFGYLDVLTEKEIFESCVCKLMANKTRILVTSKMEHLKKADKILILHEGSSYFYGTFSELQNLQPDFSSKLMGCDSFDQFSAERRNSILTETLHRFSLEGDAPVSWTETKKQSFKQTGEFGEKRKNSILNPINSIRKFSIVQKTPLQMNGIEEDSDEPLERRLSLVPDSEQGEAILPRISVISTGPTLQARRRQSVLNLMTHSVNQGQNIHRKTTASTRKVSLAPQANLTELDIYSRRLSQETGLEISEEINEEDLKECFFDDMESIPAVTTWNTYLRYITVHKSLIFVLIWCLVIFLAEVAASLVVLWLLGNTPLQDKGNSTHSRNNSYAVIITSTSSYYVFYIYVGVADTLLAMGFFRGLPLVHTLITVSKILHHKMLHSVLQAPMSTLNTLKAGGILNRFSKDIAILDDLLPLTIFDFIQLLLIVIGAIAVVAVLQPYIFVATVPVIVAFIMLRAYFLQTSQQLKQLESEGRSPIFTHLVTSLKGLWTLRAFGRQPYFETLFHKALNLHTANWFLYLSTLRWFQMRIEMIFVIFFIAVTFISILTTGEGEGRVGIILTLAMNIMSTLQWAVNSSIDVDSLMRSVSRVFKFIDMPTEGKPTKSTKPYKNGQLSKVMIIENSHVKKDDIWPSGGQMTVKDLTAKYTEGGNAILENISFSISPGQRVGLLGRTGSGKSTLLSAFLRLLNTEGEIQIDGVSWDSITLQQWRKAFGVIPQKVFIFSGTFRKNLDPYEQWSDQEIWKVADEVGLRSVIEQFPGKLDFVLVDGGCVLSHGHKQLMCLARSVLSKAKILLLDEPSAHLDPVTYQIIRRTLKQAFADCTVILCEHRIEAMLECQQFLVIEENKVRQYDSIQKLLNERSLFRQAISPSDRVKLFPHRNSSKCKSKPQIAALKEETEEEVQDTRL

| EC50 [1] [nM] | EC50 [2] [nM] | Maximum % activity (with co-corrector) [3] | Emax (CSE-HRP, without co-corrector) [%] | EC50 [4] [nM] | EC50 [5] [nM] | Maximum % activity (with co-corrector) (with co-corrector (2 μM)) | Emax (without co-corrector) [%] | Emax [6] [%] | Maximum % activity (with co-corrector) [7] | SMILES |
| --- | --- | --- | --- | --- | --- | --- | --- | --- | --- | --- |
| 1000 to 10000 | 1000 to 10000 | +++ (≥350) | 100 to 200 | – | – | – | – | – | – | COc1ccc(C(C)(C)C)cc1CN[C@H]1[C@H](C(C)(C)C)[C@@H](C(=O)O)N(C(=O)Cc2nn(C)c(=O)c3ccccc23)[C@H]1c1ccccc1 [II-221] |
| 1000 to 10000 | 1000 to 10000 | +++ (≥350) | < 100 | – | – | – | – | – | – | COc1c(Cl)cccc1CN[C@@H]1[C@@H](C(C)(C)C)[C@H](C(=O)O)N(C(=O)C2CCCCC2)[C@@H]1c1ccccc1 (racemic) [II-7] |
| – | – | – | – | 1000 to 10000 | 1000 to 10000 | ++ (≥150 and <350) | < 100 | – | – | CC(C)(C)[C@H]1[C@H](NCc2cc3ccccc3o2)[C@H](c2ccccc2)N(C(=O)C2CCCCC2)[C@@H]1C(=O)O [Example I-46] |
| – | – | – | – | 1000 to 10000 | 1000 to 10000 | +++ (≥350) | > 200 | – | – | COc1ccc(C(F)(F)F)cc1CN[C@H]1[C@H](C(C)(C)C)[C@@H](C(=O)O)N(C(=O)[C@@H](OC)c2ccccc2)[C@H]1c1ccccc1 [Example I-34] |
| – | – | – | – | 1000 to 10000 | 1000 to 10000 | +++ (≥350) | 100 to 200 | – | – | COc1ccc(C(C)(C)C)cc1CN[C@H]1[C@H](C(C)(C)C)[C@@H](C(=O)O)N(C(=O)OC(C)C)[C@H]1c1cccnc1N(C)C [Example 66, (2S,3S,4S,5S)-3-tert-butyl-4-{[(5-tert-butyl-2-methoxyphenyl)methyl]amino}-5-[2-(dimethylamino)pyridin-3-yl]-1-{[(propan-2-yl)oxy]carbonyl}pyrrolidine-2-carboxylic acid] |
| – | – | – | – | 1000 to 10000 | 1000 to 10000 | +++ (≥350) | > 200 | – | – | COc1ccc(C(C)(C)C)cc1CN[C@H]1[C@H](C(C)(C)C)[C@@H](C(=O)O)N(C(=O)C2CC3CCC(C2)O3)[C@H]1c1ccccc1 (stereo partly shown) [Example I-172] |
| – | – | – | – | 1000 to 10000 | < 1000 | – | – | > 200 | +++ (≥350) | COc1ncc(C2CCC2)cc1CN[C@H]1[C@H](C(C)(C)C)[C@@H](C(=O)O)N(C(=O)[C@@H]2CCCCO2)[C@H]1c1ccccc1C [II-585] |
| – | – | – | – | 1000 to 10000 | < 1000 | +++ (≥350) | > 200 | – | – | COc1ncc(C(F)(F)F)cc1CN[C@H]1[C@H](C(C)(C)C)[C@@H](C(=O)O)N(C(=O)[C@@H]2CCCCO2)[C@H]1c1ccccc1C1CC1 [Example 116, (2S,3S,4S,5S)-3-tert-butyl-5-(2-cyclopropylphenyl)-4-({[2-methoxy-5-(trifluoromethyl)pyridin-3-yl]methyl}amino)-1-[(2S)-oxane-2-carbonyl]pyrrolidine-2-carboxylic acid] |
| – | – | – | – | > 10000 | 1000 to 10000 | ++ (≥150 and <350) | – | < 100 | – | COc1cc(C(F)(F)F)ccc1CN[C@@H]1[C@@H](C(C)(C)C)[C@H](C(=O)O)N(C(=O)C2CCCCC2)[C@@H]1c1ccccc1OC [III-95] |
| – | – | – | – | 1000 to 10000 | 1000 to 10000 | ++ (≥150 and <350) | – | < 100 | – | COc1ccc(C(C)(C)C)cc1CN[C@H]1[C@H](C(C)(C)C)[C@@H](C(=O)O)N(C(=O)[C@]2(C)COc3cc4c(cc32)OC(F)(F)O4)[C@H]1c1cccnc1OC [III-230] |
| – | – | – | – | 1000 to 10000 | 1000 to 10000 | – | – | 100 to 200 | +++ (≥350) | COc1ccc(SC(F)(F)F)cc1CN[C@H]1[C@H](C(C)(C)C)[C@@H](C(=O)O)N(C(=O)C2CCCCC2)[C@H]1c1cccnc1OC [II-527] |
| 1000 to 10000 | 1000 to 10000 | +++ (≥350) | 100 to 200 | – | – | – | – | – | – | COc1ncc(N2CCCC2)cc1CN[C@H]1[C@H](C(C)(C)C)[C@@H](C(=O)O)N(C(=O)C2CCCCC2)[C@H]1c1ccccc1 [II-246] |
| 1000 to 10000 | 1000 to 10000 | +++ (≥350) | 100 to 200 | – | – | – | – | – | – | COc1nc(C(F)(F)F)ccc1CN[C@@H]1[C@@H](C(C)(C)C)[C@H](C(=O)O)N(C(=O)C2CCCCC2)[C@@H]1c1ccccc1 (racemic) [II-77] |
| – | – | – | – | 1000 to 10000 | 1000 to 10000 | +++ (≥350) | < 100 | – | – | COc1cc(C(F)(F)F)ccc1CN[C@H]1[C@H](C(C)(C)C)[C@@H](C(=O)O)N(C(=O)C2CCCCC2)[C@H]1c1ccccc1OC(F)F [Example I-43] |
| – | – | – | – | 1000 to 10000 | < 1000 | – | – | > 200 | +++ (≥350) | COc1ccc(C(C)(C)C)cc1CN[C@H]1[C@H](C(C)(C)C)[C@@H](C(=O)O)N(C(=O)[C@H]2[C@H](C(F)(F)F)[C@H]3CC[C@@H]2O3)[C@H]1c1ccccc1 (relative stereo) [II-506] |
| – | – | – | – | < 1000 | < 1000 | +++ (≥350) | 100 to 200 | – | – | COc1ccc(S(F)(F)(F)(F)F)cc1CN[C@H]1[C@H](C(C)(C)C)[C@@H](C(=O)O)N(C(=O)C2CCCCC2)[C@H]1c1ccccc1 [Example I-86] |
| – | – | – | – | 1000 to 10000 | 1000 to 10000 | ++ (≥150 and <350) | – | < 100 | – | COc1ccc(C(C)(C)C)cc1CN[C@H]1[C@H](C(C)(C)C)[C@@H](C(=O)O)N(C(=O)c2cn(C)c3ccccc23)[C@H]1c1ccccc1 [III-177] |
| – | – | – | – | 1000 to 10000 | 1000 to 10000 | ++ (≥150 and <350) | < 100 | – | – | COc1ccc(C(C)(C)C)cc1CN[C@H]1[C@H](C(C)(C)C)[C@@H](C(=O)NS(C)(=O)=O)N(C(=O)C2CCCCC2)[C@H]1c1ccccc1 [Example 58, (2S,3S,4S,5S)-3-tert-butyl-4-{[(5-tert-butyl-2-methoxyphenyl)methyl]amino}-1-(cyclohexanecarbonyl)-N-(methanesulfonyl)-5-phenylpyrrolidine-2-carboxamide] |
| – | – | – | – | 1000 to 10000 | 1000 to 10000 | ++ (≥150 and <350) | < 100 | – | – | COc1cc(C(F)(F)F)cc(N[C@@H]2[C@@H](C(C)(C)OC)[C@H](C(=O)O)N(C(=O)C3CCCCC3)[C@@H]2c2ccccc2)n1 (racemic) [Example I-38] |
| – | – | – | – | 1000 to 10000 | 1000 to 10000 | – | – | 100 to 200 | +++ (≥350) | COc1nc(C(C)(C)C)ccc1CN[C@H]1[C@H](C(C)(C)C)[C@@H](C(=O)O)N(C(=O)C2CCCCC2)[C@H]1c1ccccc1F [II-525] |
| 1000 to 10000 | 1000 to 10000 | +++ (≥350) | 100 to 200 | – | – | – | – | – | – | COc1ccc(C(F)(F)F)cc1CN[C@H]1[C@H](C(C)(C)C)[C@@H](C(=O)O)N(C(=O)C2CCCO2)[C@H]1c1ccccc1 (mixture of isomers) [II-59] |
| – | – | – | – | < 1000 | < 1000 | +++ (≥350) | > 200 | – | – | COc1nc(C(C)(C)C)ccc1CN[C@H]1[C@H](C(C)(C)C)[C@@H](C(=O)O)N(C(=O)C2CCCCO2)[C@H]1c1ccccc1C(C)C (stereo partly shown) [Example I-177] |

From patent US20180099931A1 (AbbVie S.à.r.l., priority 2016, published 2018)
